Experimental data reported in patent US20230217975A1, “PERFUME COMPOSITION” (AJINOMOTO CO., INC., priority 2020, published 2023).

Assays:
panel of 4 experts [1] = assay: Sensory evaluation of strength of mouth-coating feel in mayonnaise (Examples 1, 5, 6); assay type: in vivo; settings: for strength of mouth-coating feel, single component compound (II) / strength of mouth-coating feel, two components compound (II) and cyclotene / strength of mouth-coating feel, two components compound (II) and β-caryophyllene oxide / strength of mouth-coating feel, three components compound (II), β-caryophyllene oxide, and cyclotene: compound (II) 10 weight ppb; for strength of mouth-coating feel, two components compound (II) and cyclotene / strength of mouth-coating feel, three components compound (II), β-caryophyllene oxide, and cyclotene: cyclotene 500 weight ppb; for strength of mouth-coating feel, two components compound (II) and β-caryophyllene oxide / strength of mouth-coating feel, three components compound (II), β-caryophyllene oxide, and cyclotene: β-caryophyllene oxide 500 weight ppb; for strength of mouth-coating feel, no use of compound (II), single component: 500 weight ppb as printed in b569; as to strength of mouth-coating feel, three components compound (II), β-caryophyllene oxide, and cyclotene: tested at 0.01 µg/mL; as to strength of mouth-coating feel, two components compound (II) and cyclotene: tested at 0.01 µg/mL; as to strength of mouth-coating feel, two components compound (II) and β-caryophyllene oxide: tested at 0.01 µg/mL
panel of 4 experts [2] = assay: as above; assay type: in vivo; settings: for strength of mouth-coating feel, single component compound (I) / strength of mouth-coating feel, two components compound (I) and furfural / strength of mouth-coating feel, two components compound (I) and β-caryophyllene oxide / strength of mouth-coating feel, three components compound (I), β-caryophyllene oxide and furfural: compound (I) 10 weight ppb; for strength of mouth-coating feel, two components compound (I) and furfural / strength of mouth-coating feel, three components compound (I), β-caryophyllene oxide and furfural: furfural 500 weight ppb; for strength of mouth-coating feel, two components compound (I) and β-caryophyllene oxide / strength of mouth-coating feel, three components compound (I), β-caryophyllene oxide and furfural: β-caryophyllene oxide 500 weight ppb; for strength of mouth-coating feel, no use of compound (I), single component: 500 weight ppb
Description: As a positive control, general commercially available mayonnaise (manufactured by Ajinomoto Co., Inc., trade name “Pure Select (registered trade mark) mayonnaise”, oil and fat content: 73%) was used. As a negative control (NC), commercially available mayonnaise (manufactured by Ajinomoto Co., Inc., trade name “Pure Select (registered trade mark) KOKUUMA (registered trade mark) 65% Calorie Cut”, oil and fat content: 23%) with a smaller oil and fat content as compared with positive control mayonnaise was used.
Experimental samples were produced by adding at least one compound selected from cyclotene, β-caryophyllene oxide, and furfural to the aforementioned commercially available mayonnaise (manufactured by Ajinomoto Co., Inc., trade name “Pure Select (registered trade mark) KOKUUMA (registered trade mark) 65% Calorie Cut”, oil and fat content: 23%) used as the negative control, such that the concentration of each compound in the food (mayonnaise) was a concentration shown in the following Tables 1 to 3 (in the following, each experimental sample is also to be referred to as “sample of experimental plot 1-1” to “sample of experimental plot 1-39”).
Cyclotene, octanoic acid, and isovaleric acid were added to the aforementioned commercially available mayonnaise (manufactured by Ajinomoto Co., Inc., trade name “Pure Select (registered trade mark) KOKUUMA (registered trade mark) 65% Calorie Cut”, oil and fat content: 23%) used as the negative control, such that the concentration of cyclotene in the food (mayonnaise) was 100 weight ppb, the concentration of octanoic acid was 200 weight ppb, and the concentration of isovaleric acid was 100 weight ppb to produce the sample of control plot 1.
A sensory evaluation was performed on the strength of mouth-coating feel of experimental samples, and the presence or absence of off-flavor.
For the evaluation of a mouth-coating feel, a panel of 4 experts ate each mayonnaise of positive control, negative control and experimental sample (samples of experimental plots 1-1 to 1-39 and control plot 1), and graded each experimental sample in 0.1 point increments (non-blind) in the range of 0.0 to 5.0 points, with the positive control being 5.0 points and the negative control being 0.0 point, by averaging the obtained scores of the panel of 4 experts. When the score was 1.0 or more, it was determined that there was an effect of enhancing the mouth-coating feel. The panel of 4 experts was trained in advance so that they have common understanding as to the degree of change in the mouth-coating feel that is required to change the score by 0.1 point.
Experimental samples were produced by adding at least one compound selected from compound (I) shown in the following Table 8 (any of cyclotene, γ-butyrolactone, 2-methyltetrahydrofuran-3-one, α-angelicalactone, maltol, 3-methyl-1,2-cyclohexanedione, γ-dodecanolactone, 5-dodecanolide, 4,5-dimethyl-3-hydroxy-2,5-dihydrofuran-2-one, and D-camphor), β-caryophyllene oxide, and furfural to the aforementioned commercially available mayonnaise (manufactured by Ajinomoto Co., Inc., trade name “Pure Select (registered trade mark) KOKUUMA (registered trade mark) 65% Calorie Cut”, oil and fat content: 23%) used as the negative control. Compound (I) was added such that the concentration of compound (I) in the food (mayonnaise) was 10 weight ppb, β-caryophyllene oxide was added such that the concentration of β-caryophyllene oxide in the food (mayonnaise) was 500 weight ppb, and furfural was added such that the concentration of furfural in the food (mayonnaise) was 500 weight ppb.
A sensory evaluation was performed on the strength of mouth-coating feel of experimental samples in the same manner as in Example 1.

## c1coc(Cn2cccc2)c1 [1-furfurylpyrrole]
Panel of 4 experts [1]
  strength of mouth-coating feel, single component compound (II): 0.2
  strength of mouth-coating feel, two components compound (II) and cyclotene: 2.4
  strength of mouth-coating feel, two components compound (II) and β-caryophyllene oxide: 2.2
  strength of mouth-coating feel, three components compound (II), β-caryophyllene oxide, and cyclotene: 4.1

## CC(=O)c1ccc(C)o1 [2-acetyl-5-methylfuran]
Panel of 4 experts [1]
  strength of mouth-coating feel, single component compound (II): 0.2
  strength of mouth-coating feel, two components compound (II) and cyclotene: 2.2
  strength of mouth-coating feel, two components compound (II) and β-caryophyllene oxide: 2.2
  strength of mouth-coating feel, three components compound (II), β-caryophyllene oxide, and cyclotene: 4.4

## CC(=O)c1ccco1 [2-acetylfuran]
Panel of 4 experts [1]
  strength of mouth-coating feel, single component compound (II): 0.2
  strength of mouth-coating feel, two components compound (II) and cyclotene: 2.4
  strength of mouth-coating feel, two components compound (II) and β-caryophyllene oxide: 2.0
  strength of mouth-coating feel, three components compound (II), β-caryophyllene oxide, and cyclotene: 4.3

## CC1OCCC1=O (stereo not shown) [2-methyltetrahydrofuran-3-one]
Panel of 4 experts [2]
  strength of mouth-coating feel, single component compound (I): 0.5
  strength of mouth-coating feel, two components compound (I) and furfural: 2.4
  strength of mouth-coating feel, two components compound (I) and β-caryophyllene oxide: 3.2
  strength of mouth-coating feel, three components compound (I), β-caryophyllene oxide and furfural: 4.2

## CC(=O)c1cc(C)oc1C [3-acetyl-2,5-dimethylfuran]
Panel of 4 experts [1]
  strength of mouth-coating feel, single component compound (II): 0.2
  strength of mouth-coating feel, two components compound (II) and cyclotene: 2.5
  strength of mouth-coating feel, two components compound (II) and β-caryophyllene oxide: 2.0
  strength of mouth-coating feel, three components compound (II), β-caryophyllene oxide, and cyclotene: 4.2

## CC1CCCC(=O)C1=O (stereo not shown) [3-methyl-1,2-cyclohexanedione]
Panel of 4 experts [2]
  strength of mouth-coating feel, single component compound (I): 0.5
  strength of mouth-coating feel, two components compound (I) and furfural: 2.3
  strength of mouth-coating feel, two components compound (I) and β-caryophyllene oxide: 3.0
  strength of mouth-coating feel, three components compound (I), β-caryophyllene oxide and furfural: 4.4

## CC1=C(O)C(=O)OC1C (stereo not shown) [4,5-dimethyl-3-hydroxy-2,5-dihydrofuran-2-one]
Panel of 4 experts [2]
  strength of mouth-coating feel, single component compound (I): 0.3
  strength of mouth-coating feel, two components compound (I) and furfural: 2.3
  strength of mouth-coating feel, two components compound (I) and β-caryophyllene oxide: 2.9
  strength of mouth-coating feel, three components compound (I), β-caryophyllene oxide and furfural: 4.2

## O=Cc1ccc(CO)o1 [5-(hydroxymethyl)furfural]
Panel of 4 experts [1]
  strength of mouth-coating feel, single component compound (II): 0.2
  strength of mouth-coating feel, two components compound (II) and cyclotene: 2.5
  strength of mouth-coating feel, two components compound (II) and β-caryophyllene oxide: 2.2
  strength of mouth-coating feel, three components compound (II), β-caryophyllene oxide, and cyclotene: 4.3

## CCCCCCCC1CCCC(=O)O1 (stereo not shown) [5-dodecanolide]
Panel of 4 experts [2]
  strength of mouth-coating feel, single component compound (I): 0.5
  strength of mouth-coating feel, two components compound (I) and furfural: 2.4
  strength of mouth-coating feel, two components compound (I) and β-caryophyllene oxide: 3.2
  strength of mouth-coating feel, three components compound (I), β-caryophyllene oxide and furfural: 4.2

## Cc1ccc(C=O)o1 [5-methylfurfural]
Panel of 4 experts [1]
  strength of mouth-coating feel, single component compound (II): 0.2
  strength of mouth-coating feel, two components compound (II) and cyclotene: 2.4
  strength of mouth-coating feel, two components compound (II) and β-caryophyllene oxide: 2.1
  strength of mouth-coating feel, three components compound (II), β-caryophyllene oxide, and cyclotene: 4.2

## CC1(C)[C@@H]2CC[C@@]1(C)C(=O)C2 [D-camphor]
Panel of 4 experts [2]
  strength of mouth-coating feel, single component compound (I): 0.4
  strength of mouth-coating feel, two components compound (I) and furfural: 2.6
  strength of mouth-coating feel, two components compound (I) and β-caryophyllene oxide: 3.1
  strength of mouth-coating feel, three components compound (I), β-caryophyllene oxide and furfural: 4.2

## CC1=C(O)C(=O)CC1 [cyclotene]
Panel of 4 experts [2]
  strength of mouth-coating feel, single component compound (I): 0.5
  strength of mouth-coating feel, two components compound (I) and furfural: 2.5
  strength of mouth-coating feel, two components compound (I) and β-caryophyllene oxide: 3.2
  strength of mouth-coating feel, three components compound (I), β-caryophyllene oxide and furfural: 4.7
Panel of 4 experts [1]
  strength of mouth-coating feel, no use of compound (II), single component: 0.5

## O=Cc1ccco1 [furfural]
Panel of 4 experts [2]
  strength of mouth-coating feel, no use of compound (I), single component: 0.3
Panel of 4 experts [1]
  strength of mouth-coating feel, single component compound (II): 0.3
  strength of mouth-coating feel, two components compound (II) and cyclotene: 2.2
  strength of mouth-coating feel, two components compound (II) and β-caryophyllene oxide: 2.2
  strength of mouth-coating feel, three components compound (II), β-caryophyllene oxide, and cyclotene: 4.7

## OCc1ccco1 [furfuryl alcohol]
Panel of 4 experts [1]
  strength of mouth-coating feel, single component compound (II): 0.1
  strength of mouth-coating feel, two components compound (II) and cyclotene: 2.2
  strength of mouth-coating feel, two components compound (II) and β-caryophyllene oxide: 2.0
  strength of mouth-coating feel, three components compound (II), β-caryophyllene oxide, and cyclotene: 4.1

## CCC(=O)OCc1ccco1 [furfuryl propionate]
Panel of 4 experts [1]
  strength of mouth-coating feel, single component compound (II): 0.2
  strength of mouth-coating feel, two components compound (II) and cyclotene: 2.4
  strength of mouth-coating feel, two components compound (II) and β-caryophyllene oxide: 2.2
  strength of mouth-coating feel, three components compound (II), β-caryophyllene oxide, and cyclotene: 4.3

## Cc1occc(=O)c1O [maltol]
Panel of 4 experts [2]
  strength of mouth-coating feel, single component compound (I): 0.4
  strength of mouth-coating feel, two components compound (I) and furfural: 2.3
  strength of mouth-coating feel, two components compound (I) and β-caryophyllene oxide: 3.0
  strength of mouth-coating feel, three components compound (I), β-caryophyllene oxide and furfural: 4.2

## CC1=CCC(=O)O1 [α-angelicalactone]
Panel of 4 experts [2]
  strength of mouth-coating feel, single component compound (I): 0.5
  strength of mouth-coating feel, two components compound (I) and furfural: 2.3
  strength of mouth-coating feel, two components compound (I) and β-caryophyllene oxide: 2.9
  strength of mouth-coating feel, three components compound (I), β-caryophyllene oxide and furfural: 4.2

## C=C1CC[C@H]2O[C@]2(C)CC[C@@H]2[C@@H]1CC2(C)C [β-caryophyllene oxide]
Panel of 4 experts [2]
  strength of mouth-coating feel, no use of compound (I), single component: 1.5
Panel of 4 experts [1]
  strength of mouth-coating feel, no use of compound (II), single component: 1.5

## O=C1CCCO1 [γ-butyrolactone]
Panel of 4 experts [2]
  strength of mouth-coating feel, single component compound (I): 0.5
  strength of mouth-coating feel, two components compound (I) and furfural: 2.2
  strength of mouth-coating feel, two components compound (I) and β-caryophyllene oxide: 3.2
  strength of mouth-coating feel, three components compound (I), β-caryophyllene oxide and furfural: 4.2
